This is an account of results in article PMC2935964, “Selective delivery of 2-hydroxy APA to Trypanosoma brucei using the melamine motif” (Bioorganic & Medicinal Chemistry Letters, 2010).

The structures appear in SMILES notation. Like-named read-outs stand apart in the source and are kept apart here. Some results are limits rather than exact numbers.

In series [1] the test system is T. brucei brucei wild type. Briefly: In vitro activity against T. brucei brucei wild type (P2 transporter proficient). The format is cell-based, Trypanosoma brucei brucei. The note with it: for EC50: Trypanosoma brucei, read-out: T. brucei brucei EC50 Wild type. The protocol:
(§1) Compounds were tested against two T. brucei lines in vitro. The T. brucei brucei wild type that is proficient in the P2 transporter and a TbAT1 knockout line lacking the P2 transporter. This TbAT1 knockout line has been described previously.[27]

Series [2] has as its system T. brucei brucei TbAT1 KO. The series can be described thus: In vitro activity against TbAT1 knockout line lacking the P2 transporter. The format is cell-based, Trypanosoma brucei brucei. The note with it: for Resistance factor (EC50 KO/EC50 w.t.): ratio TbAT1 KO vs wild type; for EC50: Trypanosoma brucei, read-out: T. brucei brucei EC50 TbAT1 KO. The procedure: as §1
Series [3] relates to rat liver ODC. Also noted: method as in PMID 1573631. Particulars: previously reported; read-out: inhibition of rat liver ODC; cited from earlier work.
The target in series [4] is T. brucei ODC (Trypanosoma brucei brucei, UniProt P07805). The series can be described thus: Inhibition of T. brucei ODC (previously described assay). The class given is biochemical.
Sequence of T. brucei ODC (P07805 whole entry): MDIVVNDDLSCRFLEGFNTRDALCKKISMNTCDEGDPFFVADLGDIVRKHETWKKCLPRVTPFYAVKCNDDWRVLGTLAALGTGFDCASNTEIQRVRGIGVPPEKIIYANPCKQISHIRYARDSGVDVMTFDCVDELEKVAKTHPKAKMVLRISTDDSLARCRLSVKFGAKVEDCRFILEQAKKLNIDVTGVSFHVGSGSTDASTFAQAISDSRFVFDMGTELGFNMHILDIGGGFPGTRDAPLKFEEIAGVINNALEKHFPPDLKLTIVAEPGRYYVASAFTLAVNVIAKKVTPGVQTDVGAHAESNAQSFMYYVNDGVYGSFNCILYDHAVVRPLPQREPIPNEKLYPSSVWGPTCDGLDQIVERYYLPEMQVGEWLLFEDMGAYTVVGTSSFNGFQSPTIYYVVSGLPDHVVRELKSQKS
Where [5] appears, read: wild type, P2 proficient, NA = no activity at 100 μM.

As for `Cl.Cl.NCC(CON)OC(=O)CCNc1nc(N)nc(N)n1` (centres unmarked) [Compound 11b], the melting point (in general, the temperature, or range, at which the solid turns liquid) lay within 150 to 170 °C. For the same compound, in series [1] (setting [5]), the EC50 (as a rule, the midpoint of the concentration-response curve) was more than 100 µM.

For `CC(Nc1nc(N)nc(N)n1)C(=O)OC(CN)CON.Cl.Cl` (centres unmarked) [Compound 11c], the melting point lay within 160 to 180 °C. In addition, the EC50 in series [1] (setting [5]) was found to be 29 µM. For the same compound, the “Resistance factor (EC50 KO/EC50 w.t.)” value in series [2] was more than 3.

Consider `CC(C)(C)OC(=O)NCC(CONC(=O)OC(C)(C)C)OC(=O)CCNc1nc(N)nc(N)n1` (centres unmarked) [Compound 10b], for which the EC50 in series [1] came out at 77 µM; in series [2], 40 µM. The “Resistance factor (EC50 KO/EC50 w.t.)” value in series [2] stood at 0.5.

Compound `Cl.Cl.NCC(CON)OC(=O)CNc1nc(N)nc(N)n1` (centres unmarked) [Compound 11a] had a melting point of 150 to 170 °C. The EC50 in series [1] (setting [5]) is more than 100 µM.

For `NCC(O)CON` (centres unmarked) [Compound 7, 2-hydroxy APA], the figures for the IC50 in series [3] and in series [4] were 0.039 µM and 0.048 ± 0.009 µM, respectively. Moreover, the EC50 in series [1] was more than 100 µM.

For `Cl.Cl.NCC(CON)OC(=O)CCCNc1nc(N)nc(N)n1` (centres unmarked) [Compound 11d], the figures for the 50% effective concentration (EC50) in series [1] (setting [5]) and in series [2] were 113 µM and 288 µM, respectively. For the same compound, the “Resistance factor (EC50 KO/EC50 w.t.)” value in series [2] is on record as 2.5.

With `Cl.NCCCON` [Compound 3, 3-(aminooxy)propanamine, reference compound], the IC50 in series [3] was 0.035 µM; in series [4], 0.022 ± 0.007 µM. Also, the EC50 in series [1] was more than 100 µM. Also, in series [1] (setting [5]), the “T. brucei brucei EC50 Wild type” value is “inactive”.
